Here are results for six compounds from ChEMBL document CHEMBL1201862, “PubChem BioAssay data set” (2004).

Activity calls are given as the source filed them. Bounds are passed on as bounds.

For assay [1], the target named is Sphingosine 1-phosphate receptor 4 (Homo sapiens, UniProt O95977). In words: Fluorescence dose response cell-based high throughput screening assay for agonists of the Sphingosine 1-Phosphate Receptor 4 (S1P4). [Related pubchem assays: 1509 (Primary screen.), 1523 (Confirmation screen in triplicates.)]. In kind it is functional.
Assay [2] addresses Sphingosine 1-phosphate receptor 1 (Homo sapiens, UniProt P21453). Description: Fluorescence-based counterscreen assay for S1P4 agonists: Cell-based dose response high throughput screening assay to identify agonists of the Sphingosine 1-Phosphate Receptor 1 (S1P1). [Related pubchem assays (depositor defined):AID1509, AID1523, AID1801, AID463107, AID463118, AID463119, AID463122, AID463123, AID463129, AID463225, AID504400, AID504460]. It is filed as functional.

Assay [3] concerns the target T1, E3 ubiquitin-protein ligase XIAP (Homo sapiens, UniProt P98170). Description: small molecules displacing peptide from XIAP – biochemical, IAP family, fluorescence polarization (AID 1018). In kind it is functional.
Assay [4] has as its target T1, E3 ubiquitin-protein ligase XIAP. In words: Counter Screen using XIAP-Bir3 for Chemical Antagonists of Bir1/2 domains of IAP-family anti-apoptotic proteins. [Related pubchem assays (depositor defined):AID1018, AID1449, AID1514, AID1638, AID1749, AID1750, AID488957, AID488963].
For assay [5], the target named is Peroxisome proliferator-activated receptor gamma/Nuclear receptor coactivator 2 (Homo sapiens, UniProt P37231). Description: TR-FRET dose response biochemical High Throughput Screening assay for agonists of the steroid receptor coactivator 2 (SRC-2) recruitment by the peroxisome proliferator-activated receptor gamma (PPAR gamma): non-selective agonists. [Related pubchem assays: 1297, 1032 ]. It is filed as functional.

Assay [6] deals with FAD-linked sulfhydryl oxidase ALR (Homo sapiens, UniProt P55789). Description: ALR-catalysed DTT oxidation blockers – biochemical, H2O2 detection, luminescence, cherry-pick, dose response (AID 493248).
Assay [7] deals with Peroxisome proliferator-activated receptor gamma/Nuclear receptor coactivator 1 (Homo sapiens, UniProt P37231). In words: TR-FRET dose response biochemical High Throughput Screening assay for agonists of the steroid receptor coactivator 1 (SRC-1) recruitment by the peroxisome proliferator-activated receptor gamma (PPAR gamma): non-selective agonists. [Related pubchem assays (depositor defined):AID1300, AID1808, AID504735, AID631]. It is filed as protein assay.

Assay [8] concerns the target Peroxisome proliferator-activated receptor gamma/Nuclear receptor coactivator 3 (Homo sapiens, UniProt P37231). Description: TR-FRET dose response biochemical High Throughput Screening assay for agonists of the steroid receptor coactivator 3 (SRC-3) recruitment by the peroxisome proliferator-activated receptor gamma (PPAR gamma): non-selective agonists. [Related pubchem assays: 1301 (Confirmation screen.), 1048 (Primary screen.)]. It is filed as functional.

Assay [9] has as its target T2, Kappa-type opioid receptor (Homo sapiens, UniProt P41145). In kind it is functional.
Assay [10] deals with T3, Delta-type opioid receptor (Homo sapiens, UniProt P41143). In words: HTS Image-Based Screen for Agonists of the DOR Receptor. [Related pubchem assays (depositor defined):AID1777, AID1786, AID2133]. It is filed as functional.
For assay [11], the target named is T3, Delta-type opioid receptor. In words: delta opioid receptor blockers – image-based, SAR follow-up (AID 2357). It is filed as functional.
Assay [12] has as its target T4, Mu-type opioid receptor (Homo sapiens, UniProt P35372). In words: HTS Image-Based Screen for Agonists of the MOR Receptor. [Related pubchem assays (depositor defined):AID1777, AID1785, AID1786, AID2133]. It is filed as functional.
Assay [13] has as its target T4, Mu-type opioid receptor. In words: mu opioid receptor activators, image-based, SAR follow-up (AID 2352). It is filed as functional.
The target of assay [14] is T4, Mu-type opioid receptor. In words: mu opioid receptor blockers – image-based, SAR follow-up (AID 2420).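 Also: compounds added before stimulation of receptor with agonist DAMGO.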 It is filed as functional.
In assay [15] the target is T2, Kappa-type opioid receptor. It is filed as functional. The source holds these as a separate data set.
Assay [16] has as its target T2, Kappa-type opioid receptor. Description: SAR analysis of small molecule agonists of the kappa opioid receptor via a luminescent beta-arrestin assay. [Related pubchem assays (depositor defined):AID1777, AID1786, AID1966, AID2133, AID2136, AID2348, AID2352, AID2357, AID2359, AID2370, AID2420, AID2478, AID2491, AID2492, AID2493, AID2497, AID2498, AID2500, AID449737, AID488822, AID488842]. It is filed as functional.

Assay [17] has as its target T3, Delta-type opioid receptor. In words: DOR agonists, SAR follow-up, image-based (AID 2370). It is filed as functional.
Assay [18] deals with T3, Delta-type opioid receptor. Description: HTS Image-Based Screen for Antagonists of the DOR Receptor. [Related pubchem assays (depositor defined):AID1777, AID1785, AID1786, AID2133]. It is filed as functional.
In assay [19] the target is T2, Kappa-type opioid receptor. In words: kappa opioid receptor blockers, image-based, SAR follow-up (AID 2348). It is filed as functional.
For the next assay, the target named is T5, Coagulation factor XII (Homo sapiens, UniProt P00748).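 Also: activated factor XIIa alpha cleaving a fluorogenic AMC peptide substrate; inhibitor potency from loss of enzyme activity.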
T5 sequence (P00748 whole entry): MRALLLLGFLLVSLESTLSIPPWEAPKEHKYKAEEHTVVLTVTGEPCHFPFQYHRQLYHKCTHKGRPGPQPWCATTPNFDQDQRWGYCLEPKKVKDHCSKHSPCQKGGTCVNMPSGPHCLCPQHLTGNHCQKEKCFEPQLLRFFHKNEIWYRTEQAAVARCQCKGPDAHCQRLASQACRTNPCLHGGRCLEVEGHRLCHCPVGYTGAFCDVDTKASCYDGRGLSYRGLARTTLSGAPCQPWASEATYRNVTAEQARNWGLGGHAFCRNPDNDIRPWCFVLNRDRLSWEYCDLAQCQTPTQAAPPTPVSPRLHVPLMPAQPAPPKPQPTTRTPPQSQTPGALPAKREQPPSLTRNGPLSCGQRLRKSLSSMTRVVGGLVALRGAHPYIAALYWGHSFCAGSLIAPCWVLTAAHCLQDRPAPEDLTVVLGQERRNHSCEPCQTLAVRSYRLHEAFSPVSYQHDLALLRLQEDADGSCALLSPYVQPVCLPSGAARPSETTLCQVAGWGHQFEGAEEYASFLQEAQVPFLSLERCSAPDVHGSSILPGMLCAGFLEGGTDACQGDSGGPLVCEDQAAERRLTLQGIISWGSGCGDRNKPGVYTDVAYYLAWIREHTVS
It is filed as functional.

Assay [20] has as its target T2, Kappa-type opioid receptor. Description: kappa opioid receptor activation potency – imaging, image-based, SAR follow-up (AID 2359). It is filed as functional.
For assay [21], the target named is T2, Kappa-type opioid receptor. In words: SAR analysis of small molecule agonists of the kappa opioid receptor via a luminescent beta-arrestin assay - Set 3. [Related pubchem assays (depositor defined):AID1777, AID1785, AID1786, AID1966, AID2133, AID2136, AID2284, AID2500]. In kind it is functional.
For assay [22], the target named is T6, Runt-related transcription factor 1/Core-binding factor subunit beta (Homo sapiens, UniProt Q01196+Q13951). In words: disruptors of Runt domain/CBFb-SMMHC interaction – biochemical, FRET, Cerulean-Runt, Venus-CBFb-SMMHC, uHTS, […] (AID 1434). It is filed as protein assay.
The target in assay [23] is T7, Neuropeptide Y receptor type 1 (Homo sapiens, UniProt P25929).
T7 sequence (P25929 whole entry): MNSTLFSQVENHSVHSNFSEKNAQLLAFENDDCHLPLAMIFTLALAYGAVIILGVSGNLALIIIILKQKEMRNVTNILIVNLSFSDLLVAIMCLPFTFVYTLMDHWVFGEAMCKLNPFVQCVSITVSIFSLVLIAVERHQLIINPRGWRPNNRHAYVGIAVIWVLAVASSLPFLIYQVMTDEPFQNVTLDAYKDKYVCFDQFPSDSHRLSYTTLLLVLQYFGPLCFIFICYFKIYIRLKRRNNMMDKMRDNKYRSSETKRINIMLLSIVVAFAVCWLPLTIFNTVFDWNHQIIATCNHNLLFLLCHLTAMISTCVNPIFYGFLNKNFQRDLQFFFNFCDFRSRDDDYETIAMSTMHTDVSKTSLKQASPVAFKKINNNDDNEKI
Description: Fluorescence-based counterscreen for agonists of NPY-Y2: cell-based high-throughput dose response assay for agonists of NPY-Y1. It is filed as functional.

Assay [24] has as its target T6, Runt-related transcription factor 1/Core-binding factor subunit beta. Description: Runt domain/CBFb-SMMHC interaction disruptors – biochemical, TR-FRET (AID 1438). It is filed as protein assay.
The target of assay [25] is T8, Neuropeptide Y receptor type 2 (Homo sapiens, UniProt P49146).
T8 sequence (P49146 whole entry): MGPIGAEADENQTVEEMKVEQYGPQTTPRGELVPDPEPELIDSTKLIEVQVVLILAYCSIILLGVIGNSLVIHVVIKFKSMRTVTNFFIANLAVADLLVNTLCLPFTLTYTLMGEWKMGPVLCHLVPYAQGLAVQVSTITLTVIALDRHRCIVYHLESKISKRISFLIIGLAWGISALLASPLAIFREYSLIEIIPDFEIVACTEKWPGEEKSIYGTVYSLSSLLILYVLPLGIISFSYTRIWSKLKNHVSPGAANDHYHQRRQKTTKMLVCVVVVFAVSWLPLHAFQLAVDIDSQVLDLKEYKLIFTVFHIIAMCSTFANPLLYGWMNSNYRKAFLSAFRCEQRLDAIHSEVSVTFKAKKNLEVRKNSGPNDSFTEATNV
In words: Fluorescence-based cell-based high-throughput dose response assay for agonists of NPY-Y2. [Related pubchem assays: 1703 (Screening assay (CNGC inhibitors).), 1359 (Screening assay (NPY-Y2 potentiators or agonists).), 1304 (Screening assay (NPY-Y1 potentiators or agonists).), 1710 (Screening assay (NPY-Y2 agonists).), 1791 (Summary AID.)]. In kind it is functional.

For a further assay, the system named is HEK293. Description: Fluorescence-based counterscreen for potentiators or agonists of NPY-Y2: cell-based high-throughput dose response assay to identify inhibitors of cyclic nucleotide gated ion channel (CNGC) activity. In this assay, the parental HEK293 cell line transfected with a cyclic-nucleotide gated ion channel (CNGC)-based cAMP sensor is used to measure inhibition of isoproterenol-induced CNGC activity by test compound. It is filed as functional. To be noted: Homo sapiens.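 Also: stimulus is 1 µM isoproterenol at EC100 plus PDE inhibitor Ro 20-1724 at 25 µM.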

T2 sequence (P41145 whole entry): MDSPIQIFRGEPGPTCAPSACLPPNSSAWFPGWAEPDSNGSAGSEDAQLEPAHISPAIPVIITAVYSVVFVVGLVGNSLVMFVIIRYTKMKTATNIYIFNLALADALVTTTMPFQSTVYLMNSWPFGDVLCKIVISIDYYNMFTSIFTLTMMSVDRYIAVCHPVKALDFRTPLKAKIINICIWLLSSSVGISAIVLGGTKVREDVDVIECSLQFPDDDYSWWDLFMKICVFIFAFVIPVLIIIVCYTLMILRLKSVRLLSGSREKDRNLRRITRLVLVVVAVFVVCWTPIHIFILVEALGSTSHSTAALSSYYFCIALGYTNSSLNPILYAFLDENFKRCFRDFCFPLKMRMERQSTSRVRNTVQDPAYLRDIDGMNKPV
T4 sequence (P35372 whole entry): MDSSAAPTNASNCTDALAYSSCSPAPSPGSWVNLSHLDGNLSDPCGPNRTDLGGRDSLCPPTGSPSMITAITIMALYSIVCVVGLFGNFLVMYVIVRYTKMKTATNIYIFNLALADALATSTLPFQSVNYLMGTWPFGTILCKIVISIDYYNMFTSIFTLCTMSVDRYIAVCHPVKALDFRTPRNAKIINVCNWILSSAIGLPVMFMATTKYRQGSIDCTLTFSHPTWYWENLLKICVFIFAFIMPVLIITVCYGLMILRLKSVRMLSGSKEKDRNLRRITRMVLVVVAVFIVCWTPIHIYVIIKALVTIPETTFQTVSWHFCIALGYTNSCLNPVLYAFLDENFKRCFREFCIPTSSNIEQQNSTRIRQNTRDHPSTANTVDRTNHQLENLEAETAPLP
T3 sequence (P41143 whole entry): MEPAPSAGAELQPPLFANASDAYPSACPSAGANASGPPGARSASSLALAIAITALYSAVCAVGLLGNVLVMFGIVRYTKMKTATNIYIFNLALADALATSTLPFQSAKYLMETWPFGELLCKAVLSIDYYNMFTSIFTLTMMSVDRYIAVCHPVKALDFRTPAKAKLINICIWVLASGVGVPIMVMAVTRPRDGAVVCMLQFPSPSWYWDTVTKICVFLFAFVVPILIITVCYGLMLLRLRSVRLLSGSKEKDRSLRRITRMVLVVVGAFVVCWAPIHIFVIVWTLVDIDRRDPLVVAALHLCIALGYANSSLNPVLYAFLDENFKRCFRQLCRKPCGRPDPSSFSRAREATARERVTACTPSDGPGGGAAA
T6 sequence (Q01196 whole entry, the tested form may be a part): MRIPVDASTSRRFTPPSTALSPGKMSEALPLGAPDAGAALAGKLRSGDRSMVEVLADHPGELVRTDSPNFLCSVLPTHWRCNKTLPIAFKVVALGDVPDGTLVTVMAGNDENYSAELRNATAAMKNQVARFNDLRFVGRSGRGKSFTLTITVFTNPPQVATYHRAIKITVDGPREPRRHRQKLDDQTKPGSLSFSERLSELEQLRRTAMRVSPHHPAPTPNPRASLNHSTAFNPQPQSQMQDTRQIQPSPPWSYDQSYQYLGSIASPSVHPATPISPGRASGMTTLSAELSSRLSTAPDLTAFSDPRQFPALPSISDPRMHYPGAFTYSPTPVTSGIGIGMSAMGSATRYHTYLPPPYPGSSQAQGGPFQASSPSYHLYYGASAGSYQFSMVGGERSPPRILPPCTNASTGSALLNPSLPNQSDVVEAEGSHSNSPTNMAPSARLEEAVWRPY
T6 sequence (Q13951 whole entry, the tested form may be a part): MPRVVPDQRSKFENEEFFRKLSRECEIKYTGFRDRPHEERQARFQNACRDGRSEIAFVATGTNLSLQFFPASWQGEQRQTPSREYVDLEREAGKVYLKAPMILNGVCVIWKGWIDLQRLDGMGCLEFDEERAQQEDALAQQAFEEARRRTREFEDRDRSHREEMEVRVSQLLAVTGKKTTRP
T1 sequence (P98170 whole entry): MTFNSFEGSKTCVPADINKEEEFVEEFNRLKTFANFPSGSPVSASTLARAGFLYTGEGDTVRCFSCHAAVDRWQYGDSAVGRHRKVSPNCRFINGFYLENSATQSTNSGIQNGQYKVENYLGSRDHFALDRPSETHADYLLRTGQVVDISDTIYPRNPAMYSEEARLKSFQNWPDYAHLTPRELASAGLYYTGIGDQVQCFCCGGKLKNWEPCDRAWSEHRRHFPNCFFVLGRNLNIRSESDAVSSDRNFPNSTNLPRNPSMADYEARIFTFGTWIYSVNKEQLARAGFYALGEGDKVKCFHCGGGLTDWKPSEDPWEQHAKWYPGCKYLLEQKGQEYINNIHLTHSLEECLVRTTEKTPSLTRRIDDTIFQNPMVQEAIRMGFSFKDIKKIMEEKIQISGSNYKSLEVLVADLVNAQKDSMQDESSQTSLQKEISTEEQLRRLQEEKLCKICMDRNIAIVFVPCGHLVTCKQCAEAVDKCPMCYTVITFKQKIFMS
Sequence of Sphingosine 1-phosphate receptor 1 (P21453 whole entry): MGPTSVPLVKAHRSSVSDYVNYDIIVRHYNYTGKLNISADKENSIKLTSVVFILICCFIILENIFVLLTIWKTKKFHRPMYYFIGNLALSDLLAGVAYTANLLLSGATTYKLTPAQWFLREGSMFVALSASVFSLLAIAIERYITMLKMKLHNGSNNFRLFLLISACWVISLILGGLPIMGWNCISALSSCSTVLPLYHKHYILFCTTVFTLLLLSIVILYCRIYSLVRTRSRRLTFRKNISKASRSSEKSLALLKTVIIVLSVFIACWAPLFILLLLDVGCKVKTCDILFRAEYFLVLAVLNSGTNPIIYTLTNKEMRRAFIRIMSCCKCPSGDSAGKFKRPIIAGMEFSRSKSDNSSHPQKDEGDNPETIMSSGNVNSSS
Sequence of Peroxisome proliferator-activated receptor gamma/Nuclear receptor coactivator 1 (P37231 whole entry): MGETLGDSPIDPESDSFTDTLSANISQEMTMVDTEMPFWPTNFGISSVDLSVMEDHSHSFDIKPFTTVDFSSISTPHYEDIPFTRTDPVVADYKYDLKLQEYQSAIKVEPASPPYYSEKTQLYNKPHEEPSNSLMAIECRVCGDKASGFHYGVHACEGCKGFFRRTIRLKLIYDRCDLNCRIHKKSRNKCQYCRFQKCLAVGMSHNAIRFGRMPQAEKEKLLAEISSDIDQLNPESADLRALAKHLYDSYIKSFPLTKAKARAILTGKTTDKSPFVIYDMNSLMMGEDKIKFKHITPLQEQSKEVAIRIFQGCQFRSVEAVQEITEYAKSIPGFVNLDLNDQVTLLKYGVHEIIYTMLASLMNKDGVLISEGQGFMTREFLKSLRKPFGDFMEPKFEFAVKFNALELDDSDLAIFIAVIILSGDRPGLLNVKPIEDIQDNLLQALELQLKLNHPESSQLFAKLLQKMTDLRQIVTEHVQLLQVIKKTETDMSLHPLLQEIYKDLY
Sequence of Peroxisome proliferator-activated receptor gamma/Nuclear receptor coactivator 1 (Q15788 whole entry, further chain): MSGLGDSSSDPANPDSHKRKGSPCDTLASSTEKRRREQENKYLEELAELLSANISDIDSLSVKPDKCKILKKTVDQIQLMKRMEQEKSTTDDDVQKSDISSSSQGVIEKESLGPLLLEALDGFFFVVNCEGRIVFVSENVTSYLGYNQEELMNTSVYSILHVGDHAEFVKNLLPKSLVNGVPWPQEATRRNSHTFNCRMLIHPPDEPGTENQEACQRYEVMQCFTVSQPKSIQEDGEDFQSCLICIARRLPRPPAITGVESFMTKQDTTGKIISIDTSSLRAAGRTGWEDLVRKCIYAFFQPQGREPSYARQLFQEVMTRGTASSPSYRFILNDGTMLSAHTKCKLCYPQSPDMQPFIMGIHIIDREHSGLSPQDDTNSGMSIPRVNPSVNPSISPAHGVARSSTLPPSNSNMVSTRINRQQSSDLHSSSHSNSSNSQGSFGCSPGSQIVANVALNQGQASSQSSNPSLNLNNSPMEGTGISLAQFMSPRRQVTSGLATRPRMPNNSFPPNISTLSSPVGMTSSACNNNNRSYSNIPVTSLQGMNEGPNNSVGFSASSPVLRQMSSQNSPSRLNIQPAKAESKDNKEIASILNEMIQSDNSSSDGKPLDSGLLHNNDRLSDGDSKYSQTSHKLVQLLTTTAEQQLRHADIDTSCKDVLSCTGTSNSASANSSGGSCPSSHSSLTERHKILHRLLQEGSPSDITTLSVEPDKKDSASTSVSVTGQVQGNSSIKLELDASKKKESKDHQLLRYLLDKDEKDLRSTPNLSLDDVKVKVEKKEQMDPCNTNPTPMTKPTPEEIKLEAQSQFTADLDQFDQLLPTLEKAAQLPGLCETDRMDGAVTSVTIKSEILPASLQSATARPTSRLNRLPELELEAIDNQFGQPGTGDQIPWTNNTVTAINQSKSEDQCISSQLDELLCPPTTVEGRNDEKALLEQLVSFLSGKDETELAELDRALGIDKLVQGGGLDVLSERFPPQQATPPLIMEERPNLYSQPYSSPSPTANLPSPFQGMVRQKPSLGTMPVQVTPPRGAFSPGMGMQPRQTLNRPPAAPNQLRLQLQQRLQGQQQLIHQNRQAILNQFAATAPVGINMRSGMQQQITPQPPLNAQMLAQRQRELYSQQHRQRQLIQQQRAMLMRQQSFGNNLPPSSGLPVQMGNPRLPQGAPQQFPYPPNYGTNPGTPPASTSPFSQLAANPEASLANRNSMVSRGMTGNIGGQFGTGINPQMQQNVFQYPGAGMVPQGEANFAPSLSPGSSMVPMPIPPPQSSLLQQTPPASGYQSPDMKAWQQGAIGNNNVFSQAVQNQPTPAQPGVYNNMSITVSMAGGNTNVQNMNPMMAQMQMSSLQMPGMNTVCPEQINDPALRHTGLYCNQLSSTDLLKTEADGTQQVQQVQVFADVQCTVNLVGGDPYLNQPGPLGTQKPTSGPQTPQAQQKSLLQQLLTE
Sequence of FAD-linked sulfhydryl oxidase ALR (P55789 whole entry): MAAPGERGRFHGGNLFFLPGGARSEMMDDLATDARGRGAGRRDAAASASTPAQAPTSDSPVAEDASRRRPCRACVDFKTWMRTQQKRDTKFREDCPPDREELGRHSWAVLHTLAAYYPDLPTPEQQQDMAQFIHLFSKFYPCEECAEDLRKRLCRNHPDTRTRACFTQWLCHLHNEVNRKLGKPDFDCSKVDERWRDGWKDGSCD

For the compound `CCNC(=O)NC(=O)C(C)OC(=O)c1c(C)nn(Cc2ccccc2)c1Cl` (configuration not stated), the EC50 in [1] was 49.8 µM (not active); in assay [2], > 49.8 µM (inactive).

Regarding `CCOc1ccc(NC(=S)NCCCN2CCN(C3CCCCC3)CC2)cc1`, the IC50 in [3] was > 100 µM (not active); in assay [4], > 100 µM (inactive).

Consider `Cc1c(Cl)c(-c2nnc(S)n2-c2ccccc2)nn1C`, for which the EC50 in [5] is > 79.4 µM (not active); in assay [7], > 79.4 µM (inactive); in [8], > 79.4 µM (not active). Moreover, in assay [6], the AC50 is < 14 nM (active).

In the case of `CCC(C)(C(=O)NC1CCCCC1)N(Cc1ccco1)C(=O)c1ccccn1` (configuration not stated), the EC50 in assay [9] is under 500 nM; in assay [10], > 32 µM (inactive); at Mu-type opioid receptor [12], > 32 µM (inactive); on Mu-type opioid receptor [13] it was > 32 µM (inactive); in assay [15], 251 nM; in assay [16] it was 645 nM (active). The values for the EC50 in [17] and in [20] were > 32 µM (inactive) and 168 nM (active), respectively. The IC50 in assay [11] is > 32 µM (inactive); on Mu-type opioid receptor [14], > 32 µM (inactive); in [18], > 32 µM (inactive); in [19], > 32 µM (inactive); on Coagulation factor XII, > 50 µM (inactive).

In the case of `COc1ccc(Cn2c(SCc3ccc(Br)cc3)nnc2-c2ccccn2)cc1`, in assay [21], the EC50 was > 20 µM (inactive).

In the case of `Cc1cc(/C=N/NC(=O)Cn2c3ccccc3c(=O)c3ccccc32)c(C)n1-c1ccc(Cl)cc1`, the IC50 in assay [22] is 4.69 µM (active); in [24] it was 11.6 µM (active). For the same compound, the EC50 is > 35.4 µM (not active) in assay [23], > 35.4 µM (not active) in assay [25] and 3.28 µM (active) with HEK293.
